Among the test systems are HT29 colon; SK-MEL-28 melanoma; SF-268 CNS; MOLT-4 leukemia; UACC-257 melanoma; SF-295 CNS; CCRF-CEM leukemia; K-562 leukemia; SR leukemia.
Holding throughout (test): NCI tumour cell line growth inhibition, 48 h

14 compounds from PubChem BioAssay (NCI) can be followed below.

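Values below derive from 48-hour exposures of cells grown in 96-well plates, with endpoints linearly interpolated between the two concentrations bracketing the appropriate inhibition level. GI50 marks 50% less growth. TGI marks complete inhibition of growth.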

For `COc1cc2cc3c4c(cc(OC)c(OC)c4c2cc1OC)CCN3C(=O)CCCC(=O)O`, the TGI in the assay on HT29 colon, with SK-MEL-28 melanoma, with SF-268 CNS, in the assay with MOLT-4 leukemia, in the assay with UACC-257 melanoma and in the assay with SF-295 CNS was above 100 µM throughout. Moreover, the TGI in the assay with CCRF-CEM leukemia, in the assay on K-562 leukemia and in the assay with SR leukemia was above 100 µM each time.
Take `CCCOc1ccc(/C(Cl)=C(\C=O)c2ccc(OC)c(OC)c2)cc1OCCC`: the TGI in the assay with HT29 colon was 18.5 µM; in the assay with SK-MEL-28 melanoma, 25.3 µM; in the assay on SF-268 CNS it was above 100 µM; in the assay with MOLT-4 leukemia it was above 100 µM; in the assay with UACC-257 melanoma, above 100 µM; in the assay with SF-295 CNS, 88.3 µM. In addition, the TGI in the assay on CCRF-CEM leukemia is above 100 µM; with K-562 leukemia, above 100 µM; in the assay with SR leukemia it was 12 µM.
For the compound `O=C(CCc1nnc2s/c(=C\c3ccccc3)c(=O)n12)Nc1cc(Cl)ccc1Cl`, the TGI in the assay on HT29 colon, in the assay with SK-MEL-28 melanoma, with SF-268 CNS, in the assay with MOLT-4 leukemia, in the assay on UACC-257 melanoma and with SF-295 CNS was above 100 µM throughout. Besides, the TGI in the assay with CCRF-CEM leukemia, with K-562 leukemia and in the assay on SR leukemia was above 100 µM each time.
Consider `COC(=O)CCC(NC(=S)N/N=C(\C)c1ccccn1)C(=O)OC` (stereo not given), for which the TGI in the assay on HT29 colon, in the assay with SK-MEL-28 melanoma, in the assay with SF-268 CNS, with MOLT-4 leukemia, in the assay with UACC-257 melanoma and with SF-295 CNS was above 100 µM each time. Besides, the TGI with CCRF-CEM leukemia and with K-562 leukemia was above 100 µM in each case.
With `Cc1ccc(/C=C(\C#N)n2nnc3cc(Cl)c(Cl)cc32)cc1`, the GI50 is 2.59 µM in the assay with HT29 colon; 2.05 µM with SK-MEL-28 melanoma; 3.66 µM in the assay on SF-268 CNS; 2.73 µM in the assay with MOLT-4 leukemia; 2.95 µM with UACC-257 melanoma; 1.32 µM with CCRF-CEM leukemia. Further, the GI50 in the assay on K-562 leukemia is 0.892 µM; with SR leukemia, 0.417 µM. Also, the TGI with HT29 colon was 13.6 µM; with SK-MEL-28 melanoma, 4.77 µM; in the assay on SF-268 CNS, above 100 µM; in the assay on MOLT-4 leukemia, above 100 µM; with UACC-257 melanoma, above 100 µM; with CCRF-CEM leukemia, above 100 µM. For the same compound, the TGI with K-562 leukemia was determined as 33.2 µM; in the assay with SR leukemia, 40.6 µM.
Turning to `NC(=O)c1ccccc1NC(=O)C(=O)C(C(=O)c1ccc2ccccc2c1)C1OC(=O)c2ccccc21` (stereo not given), the TGI amounted to 75.8 µM in the assay with HT29 colon; 37.1 µM with SF-268 CNS; 23.7 µM in the assay with MOLT-4 leukemia; 37.4 µM with UACC-257 melanoma; 77.6 µM in the assay on CCRF-CEM leukemia; 83.9 µM with K-562 leukemia.
For `COC(=O)C(C(=O)C(=O)Nc1cccc(O)c1)c1nc2ccc(Cl)cc2[nH]c1=O` (stereo not given), the TGI in the assay on HT29 colon, with SK-MEL-28 melanoma, in the assay with SF-268 CNS, with MOLT-4 leukemia, with UACC-257 melanoma and in the assay with SF-295 CNS was above 100 µM in each case. Further, the TGI in the assay on CCRF-CEM leukemia and in the assay with K-562 leukemia was above 100 µM throughout.
Regarding `CN(C)c1cccc(-c2cc(=O)c3ccccc3[nH]2)c1`, the TGI with HT29 colon, in the assay with SK-MEL-28 melanoma, with SF-268 CNS, with MOLT-4 leukemia, in the assay on UACC-257 melanoma and with SF-295 CNS was above 100 µM throughout. Moreover, the TGI in the assay with CCRF-CEM leukemia and in the assay on SR leukemia was above 100 µM each time. Further, the GI50 in the assay with SF-268 CNS is 76.6 µM; in the assay on SF-295 CNS it was 28 µM.
For `NC(=S)N/N=C(/CC(=O)c1ccc([N+](=O)[O-])cc1)C(=O)Nc1ncc([N+](=O)[O-])s1`, the TGI with HT29 colon, with SK-MEL-28 melanoma, in the assay with SF-268 CNS, in the assay with MOLT-4 leukemia, with UACC-257 melanoma and with SF-295 CNS was above 100 µM throughout. The TGI in the assay on CCRF-CEM leukemia is above 100 µM.
With `OC(c1ccccc1)(c1ccccc1)c1ccccn1`, the TGI with HT29 colon, in the assay on SK-MEL-28 melanoma, in the assay on SF-268 CNS, in the assay with MOLT-4 leukemia, with UACC-257 melanoma and in the assay on SF-295 CNS was above 100 µM throughout. Also, the TGI with CCRF-CEM leukemia, in the assay on K-562 leukemia and with SR leukemia was above 100 µM in each case.
On to `O=C1CCCCC/C=C2/CC[C@H](Sc3ccccc3)[C@@H]12`, for which the TGI in the assay with HT29 colon, in the assay with SK-MEL-28 melanoma, in the assay with SF-268 CNS, in the assay on MOLT-4 leukemia, in the assay on UACC-257 melanoma and in the assay on SF-295 CNS was above 100 µM each time. In addition, the TGI in the assay with CCRF-CEM leukemia, with K-562 leukemia and with SR leukemia was above 100 µM throughout.
In the case of `O=C(NCCCN1CCN(CCCNC(=O)c2cnc3ccccc3n2)CC1)c1cnc2ccccc2n1`, the TGI in the assay with HT29 colon, in the assay on SK-MEL-28 melanoma, in the assay on SF-268 CNS, in the assay with MOLT-4 leukemia, in the assay on UACC-257 melanoma and with SF-295 CNS was above 100 µM each time. The TGI in the assay on CCRF-CEM leukemia and in the assay on K-562 leukemia was above 100 µM throughout.
With `C/C(=N/O)C1CC=C(S(=O)(=O)c2ccccc2)C1` (stereo not given), the TGI in the assay on HT29 colon, in the assay with SK-MEL-28 melanoma, with SF-268 CNS, in the assay with MOLT-4 leukemia, with UACC-257 melanoma and in the assay on SF-295 CNS was above 100 µM each time. The TGI in the assay on CCRF-CEM leukemia, with K-562 leukemia and in the assay on SR leukemia was above 100 µM throughout.
Regarding `Nc1nnc2nc(CC(=O)/C=C/c3ccccc3)c(=O)[nH]n12`, the TGI with HT29 colon, in the assay with SK-MEL-28 melanoma, with SF-268 CNS, in the assay with MOLT-4 leukemia, in the assay with UACC-257 melanoma and in the assay on SF-295 CNS was above 100 µM throughout. The TGI in the assay with CCRF-CEM leukemia and in the assay on K-562 leukemia was above 100 µM in each case.
